Measurements as given in PubChem BioAssay (NCI).
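Exposure lasted 48 hours, with cells grown in 96-well plates and compounds tested at five concentrations. GI50 is the concentration that inhibits growth by half. Definition used: TGI = concentration required for complete inhibition of growth.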

How the values were obtained:
Experiment in all cases: NCI tumour cell line growth inhibition, 48 h
[1] = system: HCT-116 colon
[2] = system: U251 CNS
[3] = system: HS 578T breast
[4] = system: SNB-19 CNS
[5] = system: OVCAR-5 ovarian
[6] = system: A498 renal
[7] = system: M14 melanoma
[8] = system: MDA-MB-435
[9] = system: NCI-H522 lung
[10] = system: ACHN renal
[11] = system: NCI-H460 lung
[12] = system: TK-10 renal
[13] = system: OVCAR-8 ovarian
[14] = system: NCI/ADR-RES ovarian
[15] = system: NCI-H23 lung
[16] = system: HOP-92 NSCLC
[17] = system: OVCAR-4 ovarian
[18] = system: RXF 393 renal
[19] = system: LOX IMVI melanoma
[20] = system: IGROV1 ovarian
[21] = system: A549 NSCLC
[22] = system: NCI-H226 lung
[23] = system: MCF7 breast
[24] = system: PC-3 prostate
[25] = system: 786-0 renal
[26] = system: HOP-62 NSCLC
[27] = system: UO-31 renal
[28] = system: KM12 colon
[29] = system: SK-MEL-5 melanoma
[30] = system: HCC-2998 colon
[31] = system: MOLT-4 leukemia
[32] = system: COLO 205 colon
[33] = system: SN12C renal
[34] = system: K-562 leukemia
[35] = system: SR leukemia
[36] = system: CAKI-1 renal
[37] = system: SF-295 CNS
[38] = system: DU-145 prostate
[39] = system: RPMI-8226 leukemia
[40] = system: HCT-15 colon
[41] = system: SF-268 CNS
[42] = system: T-47D breast
[43] = system: SK-MEL-2 melanoma
[44] = system: CCRF-CEM leukemia
[45] = system: SK-OV-3 ovarian
[46] = system: UACC-62 melanoma
[47] = system: OVCAR-3 ovarian
[48] = system: SK-MEL-28 melanoma

CC(C)(C)C(=O)OCCNc1nc(-c2ccccc2)nc2ccccc12
GI50 [1]: 11.5 µM
TGI [1]: 23.7 µM
GI50 [2]: 11.5 µM
TGI [2]: 23.6 µM
GI50 [3]: 11.5 µM
TGI [3]: 25.6 µM
GI50 [4]: 17.3 µM
TGI [4]: 34.9 µM
GI50 [5]: 14.6 µM
TGI [5]: 27.8 µM
GI50 [6]: 15.1 µM
TGI [6]: 29 µM
GI50 [7]: 7.57 µM
TGI [7]: 20.5 µM
GI50 [8]: 15.7 µM
TGI [8]: 29.1 µM
GI50 [9]: 27.5 µM
TGI [9]: > 100 µM
GI50 [10]: 13.6 µM
TGI [10]: 26.5 µM
GI50 [11]: 16.6 µM
TGI [11]: 34.7 µM
GI50 [12]: 11 µM
TGI [12]: 23 µM
GI50 [13]: 13.5 µM
TGI [13]: 42.8 µM
GI50 [14]: 16.6 µM
TGI [14]: 51.6 µM
GI50 [15]: 12.1 µM
TGI [15]: 24.5 µM
GI50 [16]: 12.6 µM
TGI [16]: 29 µM
GI50 [17]: 23.3 µM
TGI [17]: 73.1 µM
GI50 [18]: 15.4 µM
TGI [18]: 32 µM
GI50 [19]: 10.3 µM
TGI [19]: 22 µM
GI50 [20]: 29.5 µM
TGI [20]: > 100 µM
GI50 [21]: 16.8 µM
TGI [21]: 39.5 µM
GI50 [22]: 20.2 µM
TGI [22]: 67.1 µM
GI50 [23]: 17.3 µM
TGI [23]: 43.2 µM
GI50 [24]: 15.6 µM
TGI [24]: 32.6 µM
GI50 [25]: 3.4 µM
TGI [25]: 19 µM
GI50 [26]: 13 µM
TGI [26]: 25.6 µM
GI50 [27]: 13.2 µM
TGI [27]: 36.1 µM
GI50 [28]: 3.94 µM
TGI [28]: 17.4 µM
GI50 [29]: 15.5 µM
TGI [29]: 28.8 µM
GI50 [30]: 16.4 µM
TGI [30]: 29.9 µM
GI50 [31]: 2.1 µM
TGI [31]: 19 µM
GI50 [32]: 16.2 µM
TGI [32]: 37.9 µM
GI50 [33]: 15.1 µM
TGI [33]: 28.4 µM
GI50 [34]: 2.11 µM
TGI [34]: 10.9 µM
GI50 [35]: 5.44 µM
TGI [35]: 61.5 µM
GI50 [36]: 11.6 µM
TGI [36]: 23.8 µM
GI50 [37]: 10.7 µM
TGI [37]: 22.5 µM
GI50 [38]: 13.3 µM
TGI [38]: 26.1 µM
GI50 [39]: 3.7 µM
TGI [39]: 25.7 µM
GI50 [40]: 12.3 µM
TGI [40]: 24.8 µM
GI50 [41]: 16.8 µM
TGI [41]: 35.7 µM
GI50 [42]: 22.5 µM
TGI [42]: 93.3 µM
GI50 [43]: 31.1 µM
TGI [43]: > 100 µM
GI50 [44]: 12.7 µM
TGI [44]: 35 µM
GI50 [45]: 17.7 µM
TGI [45]: 38.9 µM
GI50 [46]: 14.5 µM
TGI [46]: 27.5 µM
GI50 [47]: 3.68 µM
TGI [47]: 19.3 µM
GI50 [48]: 18.3 µM
TGI [48]: 40.1 µM
